Each block holds one compound with its values, some of them ahead of it.
Key:
[1] = Antiproliferative activity against human NALM6 cells assessed as reduction in cell viability after 120 hrs by ATPlite assay; type: functional, cell-based; conditions: NALM-6, 120 h
[2] = target: T1, Lysine-specific demethylase 4E (Homo sapiens, UniProt B2RXH2); experiment: Inhibition of KDM4E (unknown origin) after 24 hrs by alphascreen assay
[3] = target: Lysine-specific demethylase 5C (Homo sapiens, UniProt P41229); experiment: Inhibition of KDM5C (unknown origin) after 24 hrs by alphascreen assay
Lysine-specific demethylase 5C, sequence (P41229 whole entry): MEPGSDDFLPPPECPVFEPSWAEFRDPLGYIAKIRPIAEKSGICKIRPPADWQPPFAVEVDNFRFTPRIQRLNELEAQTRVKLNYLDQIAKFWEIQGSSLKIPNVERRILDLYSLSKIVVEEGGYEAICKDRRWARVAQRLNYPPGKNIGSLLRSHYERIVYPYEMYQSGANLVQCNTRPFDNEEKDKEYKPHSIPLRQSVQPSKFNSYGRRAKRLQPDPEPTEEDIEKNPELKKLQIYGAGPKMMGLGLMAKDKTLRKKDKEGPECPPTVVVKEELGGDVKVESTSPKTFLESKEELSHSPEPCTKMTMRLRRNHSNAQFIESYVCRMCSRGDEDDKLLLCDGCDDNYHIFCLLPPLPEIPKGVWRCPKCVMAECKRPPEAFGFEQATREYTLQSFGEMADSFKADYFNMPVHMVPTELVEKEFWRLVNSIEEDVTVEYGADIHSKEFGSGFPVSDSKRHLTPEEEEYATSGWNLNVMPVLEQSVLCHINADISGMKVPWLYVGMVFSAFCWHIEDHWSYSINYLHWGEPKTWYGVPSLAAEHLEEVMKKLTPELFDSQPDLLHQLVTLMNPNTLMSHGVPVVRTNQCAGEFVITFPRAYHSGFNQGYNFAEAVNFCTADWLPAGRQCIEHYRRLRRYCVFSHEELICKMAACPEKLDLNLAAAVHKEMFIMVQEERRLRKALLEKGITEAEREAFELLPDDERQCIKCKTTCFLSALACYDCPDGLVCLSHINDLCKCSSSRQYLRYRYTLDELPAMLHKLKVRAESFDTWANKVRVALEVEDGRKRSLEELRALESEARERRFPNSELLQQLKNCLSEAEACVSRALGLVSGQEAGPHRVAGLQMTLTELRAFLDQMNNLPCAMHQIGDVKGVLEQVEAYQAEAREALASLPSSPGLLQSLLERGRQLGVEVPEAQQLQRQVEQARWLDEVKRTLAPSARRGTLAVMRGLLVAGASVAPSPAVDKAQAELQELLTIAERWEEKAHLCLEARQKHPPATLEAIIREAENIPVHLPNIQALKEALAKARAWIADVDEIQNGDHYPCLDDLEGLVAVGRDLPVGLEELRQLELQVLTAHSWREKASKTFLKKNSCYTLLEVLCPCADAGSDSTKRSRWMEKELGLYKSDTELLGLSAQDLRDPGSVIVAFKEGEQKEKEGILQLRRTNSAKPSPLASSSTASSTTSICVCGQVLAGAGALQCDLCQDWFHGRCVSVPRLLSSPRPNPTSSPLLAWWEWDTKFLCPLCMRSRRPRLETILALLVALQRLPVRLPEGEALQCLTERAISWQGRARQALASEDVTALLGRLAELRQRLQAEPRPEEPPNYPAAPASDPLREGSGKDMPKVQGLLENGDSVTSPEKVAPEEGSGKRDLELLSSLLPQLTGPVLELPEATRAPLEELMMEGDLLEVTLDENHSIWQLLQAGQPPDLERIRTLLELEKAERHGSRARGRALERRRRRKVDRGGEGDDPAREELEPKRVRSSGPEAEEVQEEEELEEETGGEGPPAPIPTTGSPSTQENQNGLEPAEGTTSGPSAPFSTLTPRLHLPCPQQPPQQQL

[4] = target: T2, Lysine-specific demethylase 2A (Homo sapiens, UniProt Q9Y2K7); experiment: Inhibition of KDM2A (unknown origin) after 24 hrs by alphascreen assay
T2 sequence (Q9Y2K7 whole entry): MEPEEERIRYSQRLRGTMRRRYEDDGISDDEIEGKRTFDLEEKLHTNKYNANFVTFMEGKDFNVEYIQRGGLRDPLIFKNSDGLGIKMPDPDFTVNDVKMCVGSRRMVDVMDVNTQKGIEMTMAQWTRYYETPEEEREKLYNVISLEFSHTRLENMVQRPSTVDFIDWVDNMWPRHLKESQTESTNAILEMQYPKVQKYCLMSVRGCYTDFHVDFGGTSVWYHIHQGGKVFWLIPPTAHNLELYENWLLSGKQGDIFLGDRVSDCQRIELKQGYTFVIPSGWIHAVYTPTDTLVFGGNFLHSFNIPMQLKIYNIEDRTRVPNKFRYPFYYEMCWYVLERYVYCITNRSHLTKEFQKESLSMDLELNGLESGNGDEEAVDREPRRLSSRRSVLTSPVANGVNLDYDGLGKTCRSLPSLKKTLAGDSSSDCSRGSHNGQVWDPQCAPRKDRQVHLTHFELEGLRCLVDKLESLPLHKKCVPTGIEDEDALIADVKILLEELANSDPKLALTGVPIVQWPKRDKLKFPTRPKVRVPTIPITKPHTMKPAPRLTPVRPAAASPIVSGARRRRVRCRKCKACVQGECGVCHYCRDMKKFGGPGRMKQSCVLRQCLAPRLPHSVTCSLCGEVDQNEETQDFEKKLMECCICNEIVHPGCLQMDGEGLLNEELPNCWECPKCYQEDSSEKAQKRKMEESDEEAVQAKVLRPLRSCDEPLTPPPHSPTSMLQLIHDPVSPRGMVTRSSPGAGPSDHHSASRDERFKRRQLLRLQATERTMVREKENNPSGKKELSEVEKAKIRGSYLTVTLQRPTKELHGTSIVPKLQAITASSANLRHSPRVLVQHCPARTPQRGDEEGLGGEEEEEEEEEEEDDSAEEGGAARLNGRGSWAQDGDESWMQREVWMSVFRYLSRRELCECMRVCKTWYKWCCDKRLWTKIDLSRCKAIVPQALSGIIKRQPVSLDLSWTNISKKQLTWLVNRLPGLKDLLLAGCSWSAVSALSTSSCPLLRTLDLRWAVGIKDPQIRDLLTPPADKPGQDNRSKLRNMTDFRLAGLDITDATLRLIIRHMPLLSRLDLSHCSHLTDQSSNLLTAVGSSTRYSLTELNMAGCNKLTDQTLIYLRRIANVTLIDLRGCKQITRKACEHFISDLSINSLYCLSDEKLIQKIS

[5] = target: T3, Lysine-specific demethylase 3A (Homo sapiens, UniProt Q9Y4C1); experiment: Inhibition of KDM3A (unknown origin) after 24 hrs by alphascreen assay
T3 sequence (Q9Y4C1 whole entry): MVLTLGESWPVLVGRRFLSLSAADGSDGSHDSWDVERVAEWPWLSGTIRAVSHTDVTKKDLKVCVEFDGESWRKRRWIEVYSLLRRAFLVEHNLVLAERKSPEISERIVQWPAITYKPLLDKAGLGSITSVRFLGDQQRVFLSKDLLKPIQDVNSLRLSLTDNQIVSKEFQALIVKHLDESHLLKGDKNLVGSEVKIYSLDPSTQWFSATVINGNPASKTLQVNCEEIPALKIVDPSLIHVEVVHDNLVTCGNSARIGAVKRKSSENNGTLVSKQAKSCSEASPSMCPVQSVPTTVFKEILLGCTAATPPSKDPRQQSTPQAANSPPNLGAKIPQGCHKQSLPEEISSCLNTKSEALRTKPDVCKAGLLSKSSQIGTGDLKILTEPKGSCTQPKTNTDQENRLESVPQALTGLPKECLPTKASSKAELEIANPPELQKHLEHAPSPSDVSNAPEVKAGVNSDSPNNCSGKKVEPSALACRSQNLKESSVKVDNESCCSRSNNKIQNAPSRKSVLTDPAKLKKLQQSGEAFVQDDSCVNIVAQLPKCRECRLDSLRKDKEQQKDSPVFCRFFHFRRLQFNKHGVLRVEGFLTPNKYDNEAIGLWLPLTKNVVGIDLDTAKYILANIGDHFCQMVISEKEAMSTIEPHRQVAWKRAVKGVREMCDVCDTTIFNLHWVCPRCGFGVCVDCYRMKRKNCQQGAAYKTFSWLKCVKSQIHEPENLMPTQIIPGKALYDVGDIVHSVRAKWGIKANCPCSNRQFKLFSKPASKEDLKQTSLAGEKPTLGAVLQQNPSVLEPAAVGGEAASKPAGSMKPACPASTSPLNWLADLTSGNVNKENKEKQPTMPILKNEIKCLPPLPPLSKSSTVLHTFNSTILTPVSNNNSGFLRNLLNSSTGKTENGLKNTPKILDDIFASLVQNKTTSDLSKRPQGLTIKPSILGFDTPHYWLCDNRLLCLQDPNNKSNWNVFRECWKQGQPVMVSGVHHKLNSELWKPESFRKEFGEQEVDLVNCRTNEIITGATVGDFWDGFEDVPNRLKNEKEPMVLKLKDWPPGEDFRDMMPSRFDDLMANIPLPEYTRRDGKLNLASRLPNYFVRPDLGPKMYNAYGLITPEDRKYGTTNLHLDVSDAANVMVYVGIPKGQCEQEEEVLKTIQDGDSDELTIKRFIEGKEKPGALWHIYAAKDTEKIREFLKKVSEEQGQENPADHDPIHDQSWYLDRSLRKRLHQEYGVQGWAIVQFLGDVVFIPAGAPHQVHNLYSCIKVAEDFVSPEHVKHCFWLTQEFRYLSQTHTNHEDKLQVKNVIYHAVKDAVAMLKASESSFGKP

[6] = Antiproliferative activity against human SU-DHL6 cells assessed as reduction in cell viability after 120 hrs by ATPlite assay; type: functional, cell-based; conditions: SU-DHL-6, 120 h
[7] = Antiproliferative activity against human KMS-12-BM cells assessed as reduction in cell viability after 120 hrs by ATPlite assay; type: functional, cell-based
[8] = Antiproliferative activity against human MM1S cells assessed as reduction in cell viability after 120 hrs by ATPlite assay; type: functional, cell-based; conditions: MM1.S
[9] = target: T2, Lysine-specific demethylase 2A; experiment: Inhibition of KDM2A (unknown origin) preincubated for 15 mins followed by histone substrate addition measured after 1 hr by alphascreen assay
[10] = target: T3, Lysine-specific demethylase 3A; experiment: Inhibition of KDM3A (unknown origin) preincubated for 15 mins followed by histone substrate addition measured after 1 hr by alphascreen assay
[11] = target: T1, Lysine-specific demethylase 4E; experiment: Inhibition of KDM4E (unknown origin) preincubated for 15 mins followed by histone substrate addition measured after 1 hr by alphascreen assay

T1 sequence (B2RXH2 whole entry): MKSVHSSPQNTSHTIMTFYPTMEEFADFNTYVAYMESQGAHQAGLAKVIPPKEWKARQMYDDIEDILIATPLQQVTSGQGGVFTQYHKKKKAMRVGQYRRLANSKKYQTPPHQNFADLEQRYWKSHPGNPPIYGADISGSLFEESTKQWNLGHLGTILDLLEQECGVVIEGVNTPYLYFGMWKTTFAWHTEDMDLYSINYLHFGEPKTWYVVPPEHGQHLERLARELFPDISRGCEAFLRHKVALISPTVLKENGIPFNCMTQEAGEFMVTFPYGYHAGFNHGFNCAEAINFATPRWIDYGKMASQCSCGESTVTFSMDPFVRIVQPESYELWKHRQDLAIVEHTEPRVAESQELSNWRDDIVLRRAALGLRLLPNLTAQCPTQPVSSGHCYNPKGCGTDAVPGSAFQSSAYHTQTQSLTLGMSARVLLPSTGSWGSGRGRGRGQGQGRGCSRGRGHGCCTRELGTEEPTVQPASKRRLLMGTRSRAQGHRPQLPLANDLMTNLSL

SMILES: CCN(CC)CCCCNCc1cc(C=O)ccn1
- EC50 [1]: < 0.25 µM

- IC50 [2]: 45 µM
- IC50 [3]: > 100 µM
- IC50 [4]: > 100 µM
- IC50 [5]: > 100 µM
SMILES: CCCCCCCCOC(=O)c1ccc(O)c2ncccc12

SMILES: CCN(CCN(C)C)C(=O)CNCc1cc(CNC(=O)C(F)(F)F)ccn1
- EC50 [6]: < 0.25 µM
- EC50 [7]: < 0.25 µM
- EC50 [8]: < 0.25 µM

- IC50 [9]: 34 µM
- IC50 [10]: 191 µM
- IC50 [11]: 5 µM
SMILES: Cc1ccsc1C(NC(=O)c1ccccc1)c1cc(Cl)c2cccnc2c1O (racemic)

— ChEMBL document CHEMBL3784917, “Recent Progress in Histone Demethylase Inhibitors” (J Med Chem, 2016)
